Results as given in article PMC3199943, “Screening the MayBridge Rule of 3 Fragment Library for Compounds That Interact with the Trypanosoma brucei myo-Inositol-3-Phosphate Synthase and/or Show Trypanocidal Activity” (Molecular Biology International, 2011).
Like-named read-outs stand apart in the source and are kept apart here.

Key:
TbINO1 = molecular target: T1, TbINO1 (Trypanosoma brucei brucei, UniProt Q5QQ46); assay: biochemical; assay type: binding
T1 sequence (Q5QQ46 1-528): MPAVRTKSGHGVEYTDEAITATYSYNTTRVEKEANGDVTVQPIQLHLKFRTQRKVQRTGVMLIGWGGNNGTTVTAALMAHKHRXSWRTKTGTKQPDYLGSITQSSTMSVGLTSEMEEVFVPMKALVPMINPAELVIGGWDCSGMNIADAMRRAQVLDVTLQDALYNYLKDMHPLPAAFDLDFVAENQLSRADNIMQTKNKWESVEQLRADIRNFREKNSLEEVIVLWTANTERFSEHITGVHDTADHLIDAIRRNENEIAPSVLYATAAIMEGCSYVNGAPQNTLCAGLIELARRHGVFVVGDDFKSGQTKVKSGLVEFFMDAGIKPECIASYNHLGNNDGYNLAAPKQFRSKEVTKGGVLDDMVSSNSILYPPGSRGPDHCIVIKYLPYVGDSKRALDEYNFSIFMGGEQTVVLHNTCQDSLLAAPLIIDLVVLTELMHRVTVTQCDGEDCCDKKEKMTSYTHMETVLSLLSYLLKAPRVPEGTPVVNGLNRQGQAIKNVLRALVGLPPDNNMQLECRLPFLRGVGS

A549 cells = assay: Cytotoxicity against A549 cells, Alamar Blue; assay type: cell-based; settings: Supplementary Table 1, compound 0.5 mM, percentage of controls (n=1); for viability at 500 µM: Homo sapiens, A549, 65 h
How it was run: (§1)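 Seed HeLa/A549 at 2 × 10^4 cells/well in DMEM/10% FCS/2 mM L-Gln; treat ~65 h; add Alamar Blue, 5 h more.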

HeLa cells = assay: cells; settings: for HeLa Cells Alamar Blue: Supplementary Table 1; for viability at 500 µM / CC50: Homo sapiens, HeLa; for viability at 500 µM: 65 h; for CC50: read-out: HeLa ED50
How it was run: as §1

[1] = Supplementary Table 1, compound 1mM, mean ± SD from Boltzman curve fitting
[2] = compound 0.5 mM, percentage of controls, mean ± SD (n=3) or SE (n=2)
[3] = read-out: Tb Ino1 Tm Shift [˚C]
[4] = read-out: HeLa Cells Alamar Blue
[5] = Supplementary Table 1, compound 1mM, mean ± SD from Boltzman curve fitting, read-out: Tb Ino1 Tm Shift [˚C]
[6] = read-out: HeLa Cells Alamar Blue (% survival)

Row | Structure (SMILES) | ΔTm at 1000 µM (TbINO1; [3]) | viability at 500 µM (A549 cells) | viability at 500 µM (HeLa cells; [4]) | other results
1 | Cc1ccc(C)c(C(O)C(=O)O)c1 (centres unmarked) [compound 454, 2‐(2,5‐dimethylphenyl)‐2‐hydroxyacetic acid] |  |  |  | Tb Ino1 Tm Shift [˚C] (TbINO1; [1]): 0.02 ± 0.06 °C; A549 Cells Alamar Blue (A549 cells): 60.8 percentage of controls; HeLa Cells Alamar Blue (HeLa cells; [2]): 96.8 ± 12.7 percentage of controls
2 | Nc1ccccc1CN1CCOCC1 [compound 570, 2‐(morpholin‐4‐ylmethyl)aniline] | 0.35 ± 0.05 °C | 104% | 93.2 ± 17.1% | 
3 | OCc1nc2ccccc2[nH]1 [compound 169, 1H‐benzimidazol‐2‐ylmethanol] | 0.04 ± 0.07 °C | 81.7% | 121 ± 15% | 
4 | Cc1cccc(C)c1C#N [compound 94, 2,6‐dimethylbenzonitrile] |  | 114% | 96.4 ± 13.9% | ΔTm at 1000 µM (TbINO1; [5]): 1.3 ± 0.06 °C
5 | Cc1nccc(-c2cccc(N)c2)n1 [compound 493, 3‐(2‐methylpyrimidin‐4‐yl)aniline] | 0.15 ± 0.07 °C | 92.6% | 65.9 ± 17% | 
6 | CC(=O)c1ccc(F)c(F)c1 [compound 234, 1‐(3,4‐difluorophenyl)ethan‐1‐one] | 0.14 ± 0.08 °C | 73.9% | 90.3 ± 14% | 
7 | O=C(O)Cc1ccccc1O [compound 201, 2‐(2‐hydroxyphenyl)acetic acid] | 0.65 ± 0.08 °C | 94.2% | 94.1 ± 15.7% | 
8 | COC(=O)c1cc(C)[nH]c1C [compound 214, methyl 2,5‐dimethyl‐1H‐pyrrole‐3‐carboxylate] |  |  |  | Tb Ino1 Tm Shift [˚C] (TbINO1; [1]): 0.78 ± 0.06 °C; A549 Cells Alamar Blue (A549 cells): 64.4 percentage of controls; HeLa Cells Alamar Blue (HeLa cells; [2]): 74.8 ± 18 percentage of controls
9 | OCc1cccc2[nH]ccc12 [compound 163, 1H-indol-4-ylmethanol] |  | 47% | 103 ± 8.7% | ΔTm at 1000 µM (TbINO1; read-out: TbIno1 Tm shift [°C]): 1.9 ± 0.06 °C; viability at 500 µM (HeLa cells; [6]): 103 ± 8.7%; CC50 (HeLa cells): 2500 ± 200 µM
10 | NC(=S)c1ccccc1 [compound 123, benzene‐1‐carbothioamide] | 0.42 ± 0.06 °C | 87.9% | 89 ± 10.9% | 
11 | N#Cc1scc2c1OCCO2 [compound 327, 2,3‐dihydrothieno[3,4‐b][1,4]dioxine‐5‐carbonitrile] |  |  |  | Tb Ino1 Tm Shift [˚C] (TbINO1; [1]): 0.12 ± 0.06 °C; A549 Cells Alamar Blue (A549 cells): 121.1 percentage of controls; HeLa Cells Alamar Blue (HeLa cells; [2]): 115.5 ± 14.4 percentage of controls
12 | O=C1CC(c2ccccc2)=NO1 [compound 272, 3-phenyl-4,5-dihydroisoxazol-5-one] |  | 61.5% | 89.4 ± 3.9% | ΔTm at 1000 µM (TbINO1; read-out: TbIno1 Tm shift [°C]): 3.56 ± 0.06 °C; viability at 500 µM (HeLa cells; [6]): 89.4 ± 3.9%
13 | Nc1ccc2c(c1)OCO2 [compound 121, 1,3‐benzodioxol‐5‐amine] | 0.72 ± 0.07 °C | 110% | 76.7 ± 16% | 
14 | Cn1nccc1N [compound 7, 1‐methyl‐1H‐pyrazol‐5‐ylamine] | 0.12 ± 0.06 °C | 124% | 106 ± 6.2% | 
15 | O=C1CCSc2ccc(Cl)cc21 [compound 609, 6-chloro-3,4-dihydro-2H-1-benzothiin-4-one] |  | 105% | 74.5 ± 13.7% | ΔTm at 1000 µM (TbINO1; read-out: TbIno1 Tm shift [°C]): 2.49 ± 0.04 °C; viability at 500 µM (HeLa cells; [6]): 74.5 ± 13.7%
16 | OCc1ccc(CN2CCCC2)cc1 [compound 559, [4‐(pyrrolidin‐1‐ylmethyl)phenyl]methanol] |  |  |  | Tb Ino1 Tm Shift [˚C] (TbINO1; [1]): 0.05 ± 0.08 °C; A549 Cells Alamar Blue (A549 cells): 110 percentage of controls; HeLa Cells Alamar Blue (HeLa cells; [2]): 91.7 ± 15.8 percentage of controls
17 | CCc1cccc(C)n1 [compound 52, 2‐ethyl‐6‐methylpyridine] | 0.4 ± 0.08 °C | 70.8% | 89.7 ± 9.7% | 
18 | Cc1csc(C(=O)O)c1 [compound 139, 4‐methylthiophene‐2‐carboxylic acid] | 0.08 ± 0.07 °C | 121% | 70.9 ± 10.7% | 
19 | OCc1ccc2[nH]cnc2c1 [compound 170, 1H‐benzimidazol‐5‐ylmethanol] | 0.15 ± 0.07 °C | 92% | 98.3 ± 4.2% | 
20 | CC(=O)CSc1ccc(C)cc1 [compound 460, 1‐[(4‐methylphenyl)thio]acetone] | 0.46 ± 0.07 °C | 96.9% | 97 ± 2.5% | 
21 | OCc1ccccc1N1CCOCC1 [compound 580, (2‐morpholinophenyl)methanol] | 0.34 ± 0.06 °C | 123% | 91.3 ± 16% | 

Row | Structure (SMILES) | ΔTm at 1000 µM (TbINO1; [3]) | viability at 500 µM (A549 cells) | viability at 500 µM (HeLa cells; [4]) | other results
22 | c1cnc2c(c1)OCCN2 [compound 118, 3,4‐dihydro‐2H‐pyrido[3,2‐b][1,4]oxazine] | 0.46 ± 0.06 °C | 92.3% | 84.1 ± 18% | 
23 | Cc1nc(C)c(CO)s1 [compound 147, (2,4‐dimethyl‐1,3‐thiazol‐5‐yl)methanol] | 0.14 ± 0.08 °C | 118% | 93.6 ± 4.3% | 
24 | Cc1csc(N)c1C(N)=O [compound 239, 2-amino-4-methylthiophene-3-carboxamide] |  | 69.8% | 95.8 ± 9.3% | ΔTm at 1000 µM (TbINO1; read-out: TbIno1 Tm shift [°C]): 2.05 ± 0.05 °C; viability at 500 µM (HeLa cells; [6]): 95.8 ± 9.3%; CC50 (HeLa cells): > 20000 µM
25 | Cc1cc(Cl)ccc1C(=O)O [compound 350, 4‐chloro‐2‐methylbenzoic acid] | 1.05 ± 0.07 °C | 160% | 108 ± 9.9% | 
26 | O=C(O)c1cccc(-c2ccncc2)c1 [compound 614, 3‐pyrid‐4‐ylbenzoic acid] | 0.46 ± 0.12 °C | 66.3% | 81.2 ± 15.9% | 
27 | OCc1ccc(-c2cccs2)s1 [compound 598, 2,2′-bithien-5-ylmethanol] |  | 86.3% | 78 ± 11.6% | ΔTm at 1000 µM (TbINO1; read-out: TbIno1 Tm shift [°C]): 1.72 ± 0.06 °C; viability at 500 µM (HeLa cells; [6]): 78 ± 11.6%
28 | Cc1cc(O)cc(C)c1C#N [compound 164, 4‐hydroxy‐2,6‐dimethylbenzonitrile] | 0.26 ± 0.08 °C | 90% | 55.8 ± 12.1% | 
29 | O=C(O)c1cc2cccnc2s1 [compound 445, thieno[2,3‐b]pyridine‐2‐carboxylic acid] | 0.61 ± 0.08 °C | 45.2% | 88 ± 8.1% | 
30 | O=C(O)c1ccccc1-c1cccnc1 [compound 613, 2‐pyrid‐3‐ylbenzoic acid] | 0.14 ± 0.07 °C | 59.8% | 80 ± 5.6% | 
31 | OCCc1c[nH]c2ccccc12 [compound 277, 2‐(1H‐indol‐3‐yl)ethan‐1‐ol] | 1.12 ± 0.06 °C | 59.9% | 66.3 ± 1.7% | 
32 | COC(=O)c1ccccc1C [compound 183, methyl 2‐methylbenzoate] | 0.14 ± 0.08 °C | 51% | 114 ± 4.3% | 
33 | OC1CCC(C(F)(F)F)CC1 (centres unmarked) [compound 333, 4‐(trifluoromethyl)cyclohexan‐1‐ol] | 0.47 ± 0.04 °C | 114% | 110 ± 4.4% | 
34 | Cc1nn(C)c(C)c1CN [compound 128, (1,3,5‐trimethyl‐1H‐pyrazol‐4‐yl)methylamine] |  |  |  | Tb Ino1 Tm Shift [˚C] (TbINO1; [1]): 0.22 ± 0.06 °C; A549 Cells Alamar Blue (A549 cells): 87.7 percentage of controls; HeLa Cells Alamar Blue (HeLa cells; [2]): 80.3 ± 7 percentage of controls
35 | O=C(O)c1ccccc1F [compound 129, 2‐fluorobenzoic acid] | 0.13 ± 0.07 °C | 126% |  | viability at 500 µM (HeLa cells; read-out: HeLa Cells Alamar Blue, Supplementary Table 1, compound 0.5 mM, percentage of controls, mean ± SD (n=3) or SE (n=2)): 78.6 ± 14.2%
36 | NCCc1cccs1 [compound 81, 2‐(2‐thienyl)ethylamine] |  | 119% | 117 ± 8.9% | ΔTm at 1000 µM (TbINO1; [5]): 0.09 ± 0.07 °C
37 | CC(=O)c1c(O)cccc1O [compound 204, 1-(2,6-dihydroxyphenyl)ethan-1-one] |  | 34.4% | 36.3 ± 12.5% | ΔTm at 1000 µM (TbINO1; read-out: TbIno1 Tm shift [°C]): 2.35 ± 0.06 °C; viability at 500 µM (HeLa cells; [6]): 36.3 ± 12.5%
38 | CC(C)(N)CN1CCCC1 [compound 142, 2‐methyl‐1‐(1‐pyrrolidinyl)‐2‐propanamine] |  |  |  | Tb Ino1 Tm Shift [˚C] (TbINO1; [1]): 0.13 ± 0.07 °C; A549 Cells Alamar Blue (A549 cells): 96.3 percentage of controls; HeLa Cells Alamar Blue (HeLa cells; [2]): 89.9 ± 8.9 percentage of controls
39 | O=C(O)C(O)c1ccccc1 (centres unmarked) [compound 202, 2‐hydroxy‐2‐phenylacetic acid] | 0 °C | 55.6% | 96.7 ± 12.5% | 
40 | CNCc1ccc(-c2ccccn2)cc1 [compound 607, N‐methyl‐N‐(4‐pyridin‐2‐ylbenzyl)amine] | 0.02 ± 0.06 °C | 71.5% | 57.7 ± 17.1% | 
41 | NCc1ccc(N2CCCC2)cc1 [compound 414, [4‐(1‐pyrrolidinyl)phenyl]methanamine] | 0.14 ± 0.07 °C | 96.8% | 68 ± 13.7% | 
